# According to patent US8962687B2, “Method of treating liver disorders” (priority 2012, dated 2015):
# Entries after “also recorded” stand apart in the source; their conditions may differ.
# Legend:
# Assay type in all cases: in vivo, C57BL/6 mice
# Alpha-SMA mRNA = assay: Quantitative RT-PCR of liver, Alpha-SMA; details: relative, mean±SD
# Experimental: (§1) Total RNA was extracted from liver samples using RNAiso (Takara Bio, Japan) according to the manufacturer's instructions. One μg of RNA was reverse-transcribed using a reaction mixture containing 4.4 mM MgCl2 (Roche, Switzerland), 40 U RNase inhibitor (Toyobo, Japan), 0.5 mM dNTP (Promega, USA), 6.28 μM random hexamer (Promega), 5× first strand buffer (Promega), 10 mM dithiothreitol (Invitrogen) and 200 U MMLV-RT (Invitrogen) in a final volume of 20 μL. The reaction was carried out for 1 hour at 37° C., followed by 5 minutes at 99° C. Real-time PCR was performed using real-time PCR DICE and SYBR premix Taq (Takara Bio). To calculate the relative mRNA expression level, the expression of each gene was normalized to that of reference gene 36B4 (gene symbol: Rp1p0). Information of PCR-primer sets and the plate layout was described in Table 1.
# TNF-α mRNA = assay: Quantitative RT-PCR of liver, TNF-α; details: relative, mean±SD
# Experimental: as §1
# STAM mice [1] = assay: Whole blood glucose and plasma ALT/AST in STAM model; details: mean±SD; for Whole blood glucose: non-fasting
# Experimental: Non-fasting blood glucose was measured in whole blood using […], Japan). For plasma biochemistry, blood was collected in polypropylene tubes with anticoagulant (Novo-Heparin, Mochida Pharmaceutical, Japan) and centrifuged at 1,000×g for 15 minutes at 4° C. The supernatant was collected and stored at -80° until use. Plasma ALT and AST levels were measured by FUJI DRI-CHEM 7000 (Fujifilm, Japan).
# STAM mice [2] = assay: Alpha-SMA immunostaining in STAM model; details: mean±SD
# Experimental: (§2) For immunohistochemistry, sections were cut from frozen left lateral liver tissues embedded in Tissue-Tek O.C.T. compound and fixed in acetone. Endogenous peroxidase activity was blocked using 0.03% H2O2 for 5 minutes, followed by incubation with Block Ace (Dainippon Sumitomo Pharma, Japan) for 10 minutes. The sections were incubated with a 200-fold dilution of anti-α-SMA (Epitomics, USA) or anti-F4/80 antibody (BMA Biomedicals, Switzerland) 1 hour at room temperature. […] For quantitative analysis of fibrosis area, inflammation area, and semi-quantification of α-SMA, bright field images of Sirius red-stained, F4/80 and α-SMA-immunostained sections were captured around the central vein using a digital camera (DFC280; Leica, Germany) at 200-fold magnification, and the positive areas in 5 fields/section were measured using ImageJ software (National Institute of Health, USA).
# TIMP-1 mRNA = assay: Quantitative RT-PCR of liver, TIMP-1; details: relative, mean±SD
# Experimental: as §1
# CCR2 mRNA = assay: Quantitative RT-PCR of liver, CCR2; details: relative, mean±SD
# Experimental: as §1
# STAM mice [3] = assay: Sirius red staining, fibrosis area in STAM model; details: for fibrosis area (Sirius red-positive area): mean±SD
# Experimental: For HE staining, sections were cut from paraffin blocks of left lateral liver tissue prefixed in Bouin's solution and stained with Lillie-Mayer's Hematoxylin (Muto Pure Chemicals, Japan) and eosin solution (Wako Pure Chemical Industries). NAS was calculated according to the criteria of Kleiner (Kleiner D E. et al., Hepatology, 2005; 41:1313). To visualize collagen deposition, Bouin's fixed left lateral liver sections were stained using picro-Sirius red solution (Waldeck, Germany). For quantitative analysis of fibrosis area, inflammation area, and semi-quantification of α-SMA, bright field images of Sirius red-stained, F4/80 and α-SMA-immunostained sections were captured around the central vein using a digital camera (DFC280; Leica, Germany) at 200-fold magnification, and the positive areas in 5 fields/section were measured using ImageJ software (National Institute of Health, USA).
# STAM mice [4] = assay: Liver weight and liver-to-body weight ratio in STAM model; details: mean±SD
# Experimental: NASH was induced in 50 male mice by a single subcutaneous injection of 200 μg streptozotocin (STZ, Sigma-Aldrich, USA) solution 2 days after birth and feeding with high fat diet (HFD, 57 kcal % fat, cat#: HFD32, CLEA Japan, Japan) after 4 weeks of age. Ten male littermates, fed with normal diet and without STZ treatment, were used for the normal group. Vehicle, MN-001, and Telmisartan were administered by oral route in a volume of 10 mL/kg. MN-001 was administered at doses of 10, 30, and 100 mg/kg once daily. Telmisartan was administered at dose of 10 mg/kg once daily.
# STAM mice [5] = assay: HE staining and NAFLD Activity Score (NAS) in STAM model of NASH; set-up: key to NAS (mean ± SD): NAFLD Activity Score per Kleiner et al. 2005 criteria; details: for Steatosis score 1, number of mice: score 1 = 5-33%; for Lobular inflammation score 1, number of mice: score 1 = <2 foci/200x; for Hepatocyte ballooning score 1, number of mice: score 1 = Few balloon cells; for Lobular inflammation score 2, number of mice: score 2 = 2-4 foci/200x; for Hepatocyte ballooning score 2, number of mice: score 2 = Many cells/prominent ballooning; for Hepatocyte ballooning score 0, number of mice: score 0 = None
# Experimental: STAM™ is a model for non-alcoholic steatohepatitis (NASH), symtoms thereof, and related liver disorders, created by the combination of chemical and dietary interventions in C57BL/6 mice. […] For HE staining, sections were cut from paraffin blocks of left lateral liver tissue prefixed in Bouin's solution and stained with Lillie-Mayer's Hematoxylin (Muto Pure Chemicals, Japan) and eosin solution (Wako Pure Chemical Industries). NAS was calculated according to the criteria of Kleiner (Kleiner D E. et al., Hepatology, 2005; 41:1313). To visualize collagen deposition, Bouin's fixed left lateral liver sections were stained using picro-Sirius red solution (Waldeck, Germany).
# STAM mice [6] = assay: F4/80 immunostaining, inflammation area in STAM model; details: mean±SD
# Experimental: as §2
# STAM mice [7] = assay: Liver hydroxyproline content in STAM model; details: mean±SD
# Experimental: To quantify liver hydroxyproline content, frozen liver samples (32-40 mg) were processed by an alkaline-acid hydrolysis method as follows. Liver samples were defatted with 100% acetone, dried in the air, dissolved in 2N NaOH at 65° C., and autoclaved at 121° C. for 20 minutes. The lysed samples (400 μL) were acid-hydrolyzed with 400 μL of 6N HCl at 121° C. for 20 minutes, and neutralized with 400 μL of 4N NaOH containing 10 mg/mL activated carbon. AC buffer (2.2M acetic acid/0.48M citric acid, 400 μL) was added to the samples, followed by centrifugation to collect the supernatant. A standard curve of hydroxyproline was constructed with serial dilutions of trans-4-hydroxy-L-proline (Sigma-Aldrich) starting at 16 μg/mL. The prepared samples and standards (each 400 μL) were mixed with 400 μL chloramine T solution (Wako Pure Chemical Industries) and incubated for 25 minutes at room temperature. […] After samples were cooled on ice and centrifuged to remove precipitates, the optical density of each supernatant was measured at 560 nm. The concentrations of hydroxyproline were calculated from the hydroxyproline standard curve. Protein concentrations of liver samples were determined using a BCA protein assay kit (Thermo Fisher Scientific, USA) and used to normalize the calculated hydroxyproline values. Liver hydroxyproline levels were expressed as μg per mg protein.
# MCP-1 mRNA = assay: Quantitative RT-PCR of liver, MCP-1; details: relative, normalized to 36B4, 30 mg/kg oral once daily, 6-9 wks (MN-001-middle group), mean±SD
# Experimental: as §1
# [8] = normalized to 36B4, 10 mg/kg oral once daily, 6-9 wks (MN-001-low; Telmisartan groups)
# [9] = normalized to 36B4, 30 mg/kg oral once daily, 6-9 wks (MN-001-middle group)
# [10] = normalized to 36B4, 100 mg/kg oral once daily, 6-9 wks (MN-001-high group)
# [11] = 10 mg/kg oral once daily, 6-9 wks of age (MN-001-low; Telmisartan groups)
# [12] = 30 mg/kg oral once daily, 6-9 wks of age (MN-001-middle group)
# [13] = 100 mg/kg oral once daily, 6-9 wks of age (MN-001-high group)
# [14] = 10 mg/kg oral once daily, 6-9 wks, n 10
# [15] = 30 mg/kg oral once daily, 6-9 wks, n 10
# [16] = 100 mg/kg oral once daily, 6-9 wks, n 10
smiles,measurement,setting,value
CCCc1c(SCCCOc2ccc(C(C)=O)c(OCCCC(=O)O)c2CCC)ccc(C(C)=O)c1O [MN-001],Alpha-SMA mRNA expression levels,Alpha-SMA mRNA; [8],36.8±111
same,Alpha-SMA mRNA expression levels,Alpha-SMA mRNA; [9],3.13±2.52
same,Alpha-SMA mRNA expression levels,Alpha-SMA mRNA; [10],5.78±3.45
same,TNF-α mRNA expression levels,TNF-α mRNA; [8],3.42±2.53
same,TNF-α mRNA expression levels,TNF-α mRNA; [9],7.97±9.30
same,TNF-α mRNA expression levels,TNF-α mRNA; [10],9.74±3.34
same,Plasma ALT,STAM mice [1]; [11],71±60 U/L
same,Plasma ALT,STAM mice [1]; [12],48±23 U/L
same,Plasma ALT,STAM mice [1]; [13],54±11 U/L
same,Whole blood glucose,STAM mice [1]; [11],614 ± 98 mg/dL
same,Whole blood glucose,STAM mice [1]; [12],609 ± 78 mg/dL
same,Whole blood glucose,STAM mice [1]; [13],671 ± 124 mg/dL
same,α-SMA-positive area,STAM mice [2]; [12],0.11±0.04%
same,TIMP-1 mRNA expression levels,TIMP-1 mRNA; [10],10.6±5.83
same,CCR2 mRNA expression levels,CCR2 mRNA; [10],3.86±1.43
same,fibrosis area (Sirius red-positive area),STAM mice [3]; [11],0.76±0.19%
same,fibrosis area (Sirius red-positive area),STAM mice [3]; [12],0.76±0.16%
same,fibrosis area (Sirius red-positive area),STAM mice [3]; [13],0.69±0.18%
same,fibrosis area compared with Vehicle,"STAM mice [3]; MN-001 treatment groups together (10, 30, 100 mg/kg oral once daily, 6-9 wks), dose dependent manner",significantly reduced; also recorded: significantly decreased
same,Mean liver weight,STAM mice [4]; [11],1567 ± 165 mg
same,Mean liver weight,STAM mice [4]; [13],1480 ± 145 mg
same,NAS (mean ± SD),STAM mice [5]; [11],4.7±0.5
same,"hepatocellular ballooning, HE-stained liver sections, compared with Vehicle",STAM mice [5]; [11],moderate decrease
same,"Steatosis score 1, number of mice",STAM mice [5]; [14],10
same,"Lobular inflammation score 1, number of mice",STAM mice [5]; [14],1
same,"Hepatocyte ballooning score 1, number of mice",STAM mice [5]; [14],2
same,"Lobular inflammation score 2, number of mice",STAM mice [5]; [14],9
same,"Hepatocyte ballooning score 2, number of mice",STAM mice [5]; [14],8
same,NAS (mean ± SD),STAM mice [5]; [12],4.7±0.5
same,"hepatocellular ballooning, HE-stained liver sections, compared with Vehicle",STAM mice [5]; [12],moderate decrease
same,"Steatosis score 1, number of mice",STAM mice [5]; [15],10
same,"Hepatocyte ballooning score 1, number of mice",STAM mice [5]; [15],3
same,"Lobular inflammation score 2, number of mice",STAM mice [5]; [15],10
same,"Hepatocyte ballooning score 2, number of mice",STAM mice [5]; [15],7
same,"hepatocellular ballooning, HE-stained liver sections / ballooning score, compared with Vehicle",STAM mice [5]; [13],significantly reduced; also recorded: marked improvements
same,"inflammatory cell infiltration, HE-stained liver sections, compared with Vehicle",STAM mice [5]; [13],moderate improvements
same,"Lobular inflammation score 0, number of mice","STAM mice [5]; 100 mg/kg oral once daily, 6-9 wks, score 0 = No foci, n 10",1
same,"Hepatocyte ballooning score 0, number of mice",STAM mice [5]; [16],2
same,"Steatosis score 1, number of mice",STAM mice [5]; [16],10
same,"Lobular inflammation score 1, number of mice",STAM mice [5]; [16],4
same,"Hepatocyte ballooning score 1, number of mice",STAM mice [5]; [16],7
same,"Lobular inflammation score 2, number of mice",STAM mice [5]; [16],5
same,"Hepatocyte ballooning score 2, number of mice",STAM mice [5]; [16],1
same,inflammation area (F4/80-positive area),STAM mice [6]; [12],6.33±0.84%
same,inflammation area (F4/80-positive area),STAM mice [6]; [13],6.31±0.76%
same,Liver hydroxyproline content,STAM mice [7]; [11],0.78±0.34 μg/mg protein
same,Liver hydroxyproline content,STAM mice [7]; [12],0.63±0.12 μg/mg protein
same,MCP-1 mRNA expression levels,MCP-1 mRNA,4.00±7.78
"CCCc1nc2c(C)cc(-c3nc4ccccc4n3C)cc2n1Cc1ccc(-c2ccccc2C(=O)O)cc1 [Telmisartan, reference compound]",TNF-α mRNA expression levels,TNF-α mRNA; [8],8.35±2.84
same,Plasma AST,STAM mice [1]; [11],190±28 U/L
same,α-SMA-positive area,STAM mice [2]; [11],0.12±0.05%
same,TIMP-1 mRNA expression levels,TIMP-1 mRNA; [8],7.82±2.62
same,CCR2 mRNA expression levels,CCR2 mRNA; [8],3.21±0.85
same,"hepatocellular ballooning, HE-stained liver sections, compared with Vehicle",STAM mice [5]; [11],marked improvements
same,"inflammatory cell infiltration, HE-stained liver sections, compared with Vehicle","STAM mice [5]; 10 mg/kg oral once daily, 6-9 wks of age (Telmisartan group)",marked improvements
same,"Steatosis score 0, number of mice","STAM mice [5]; 10 mg/kg oral once daily, 6-9 wks, score 0 = <5%, n 10",1
same,"Hepatocyte ballooning score 0, number of mice",STAM mice [5]; [14],4
same,"Steatosis score 1, number of mice",STAM mice [5]; [14],9
same,"Lobular inflammation score 1, number of mice",STAM mice [5]; [14],10
same,"Hepatocyte ballooning score 1, number of mice",STAM mice [5]; [14],6
